This passage reports IC50 results from BindingDB's records for patent US20230339882 (Betta Pharmaceuticals, 2023).

In the first data set the target is Potassium voltage-gated channel subfamily H member 2 (Homo sapiens, UniProt Q12809). The experiment in a line: Electrophysiological Stimulation Protocol. The text has this: Measure the peak tail current.
Sequence of Potassium voltage-gated channel subfamily H member 2 (Q12809 whole entry): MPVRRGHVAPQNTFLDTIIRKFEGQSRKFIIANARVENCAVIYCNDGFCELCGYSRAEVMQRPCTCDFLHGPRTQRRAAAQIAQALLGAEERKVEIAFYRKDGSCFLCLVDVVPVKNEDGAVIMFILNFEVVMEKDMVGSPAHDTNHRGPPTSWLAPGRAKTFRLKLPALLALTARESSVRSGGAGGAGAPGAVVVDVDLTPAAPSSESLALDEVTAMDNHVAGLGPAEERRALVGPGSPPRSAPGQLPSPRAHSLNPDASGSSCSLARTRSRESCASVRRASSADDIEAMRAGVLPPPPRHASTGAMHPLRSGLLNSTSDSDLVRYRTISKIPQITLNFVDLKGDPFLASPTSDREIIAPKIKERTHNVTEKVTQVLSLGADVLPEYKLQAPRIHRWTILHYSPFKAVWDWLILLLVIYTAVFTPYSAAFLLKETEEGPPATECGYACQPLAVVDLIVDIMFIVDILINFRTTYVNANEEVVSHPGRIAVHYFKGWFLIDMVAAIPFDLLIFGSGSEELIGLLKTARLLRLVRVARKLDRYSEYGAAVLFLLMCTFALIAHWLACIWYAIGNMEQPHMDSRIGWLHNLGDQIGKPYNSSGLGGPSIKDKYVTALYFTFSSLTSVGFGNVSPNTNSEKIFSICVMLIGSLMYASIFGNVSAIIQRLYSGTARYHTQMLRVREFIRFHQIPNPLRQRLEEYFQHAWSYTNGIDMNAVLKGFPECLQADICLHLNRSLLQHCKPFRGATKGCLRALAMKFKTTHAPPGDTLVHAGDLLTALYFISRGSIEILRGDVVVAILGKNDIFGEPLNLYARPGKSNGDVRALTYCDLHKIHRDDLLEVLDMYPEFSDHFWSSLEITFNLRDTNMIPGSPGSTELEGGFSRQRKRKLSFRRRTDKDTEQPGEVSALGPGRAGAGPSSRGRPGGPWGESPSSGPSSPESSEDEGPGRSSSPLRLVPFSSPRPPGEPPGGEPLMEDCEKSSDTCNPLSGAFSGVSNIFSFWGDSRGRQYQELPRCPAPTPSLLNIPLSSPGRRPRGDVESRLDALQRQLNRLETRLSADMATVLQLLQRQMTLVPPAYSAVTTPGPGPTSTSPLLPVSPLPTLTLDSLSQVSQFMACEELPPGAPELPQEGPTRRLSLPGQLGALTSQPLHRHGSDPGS
As to `CC(O)c1ccc(OCC#Cc2cnc(N3CCC4(CC3)Cc3ccccc3[C@H]4N)c(CO)n2)cc1` (stereo not given in full) [US20230339882, Example A71], the IC50 (as a rule, the point on the concentration scale where inhibition reaches its midpoint) is above 20000 nM.

A further data set concerns the target T1, Tyrosine-protein phosphatase non-receptor type 11 (Homo sapiens, UniProt Q06124).
T1 sequence (Q06124 whole entry): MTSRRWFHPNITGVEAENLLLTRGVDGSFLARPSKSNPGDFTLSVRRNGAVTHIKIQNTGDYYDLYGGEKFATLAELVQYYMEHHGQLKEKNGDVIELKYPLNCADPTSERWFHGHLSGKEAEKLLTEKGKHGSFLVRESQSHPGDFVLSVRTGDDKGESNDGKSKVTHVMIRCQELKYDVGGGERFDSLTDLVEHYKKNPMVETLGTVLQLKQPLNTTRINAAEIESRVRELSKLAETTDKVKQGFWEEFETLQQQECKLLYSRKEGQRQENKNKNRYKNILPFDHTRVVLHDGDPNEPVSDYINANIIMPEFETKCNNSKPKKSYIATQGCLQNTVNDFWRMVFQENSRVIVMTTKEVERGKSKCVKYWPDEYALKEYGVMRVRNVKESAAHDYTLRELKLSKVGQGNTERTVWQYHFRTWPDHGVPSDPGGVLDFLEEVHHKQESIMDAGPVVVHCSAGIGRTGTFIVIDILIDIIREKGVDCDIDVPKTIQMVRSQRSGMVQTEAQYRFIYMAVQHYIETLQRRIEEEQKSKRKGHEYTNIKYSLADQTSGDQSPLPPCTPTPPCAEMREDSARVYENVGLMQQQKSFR
The data set can be described thus: SHP2 Allosteric Inhibitory Enzyme Activity Assay. The text has this: SHP2 is allosterically activated by binding of a bis-tyrosyl-phosphorylated peptide to its Src homology 2 (SH2) domain. This later activation step results in the release of the autoinhibitory interface of SHP2, which in turn activates the SHP2 protein tyrosine phosphatase (PTP) and is available for substrate recognition and reaction catalysis. The catalytic activity of SHP2 was monitored using the surrogate DiFMUP in a rapid fluorescence assay format.[0511]experiment procedure:(1) Compound preparation:The compounds of the present invention (10 mM stock solution) were diluted to appropriate times with 100% DMSO, and the final test concentrations of the compounds of the present invention were 10 µM, 3.3333 µM, 1.1111 µM, 0.3704 µM, 0.1235 µM, 0.0412 µM, 0.0137 µM, 0.0046 µM, 0.0015 µM, 0.00 µM;(2) Prepare the enzyme reaction working solution:Perform SHP2 enzymatic assays in 96-well black polystyrene plates (flat bottom, low flange, non-binding surface) (Perki Elmer, Cat#6005270) at room temperature using a final reaction volume of 50 µL and the following assay buffer conditions: 60 mM HEPES, 75 mM NaCl, 75 mM KCl, 0.05% BRIJ-35, 1 mM EDTA, 5 mM DTT.(3) Enzyme-catalyzed reaction and data monitoring:Add the compound of the present invention to the corresponding 96-well plate, and set the blank test well without compound and enzyme only with buffer. Thaw SHP2 Activating Peptide (IRS1_pY1172(dPEG8)pY1222) on ice, add 25 µM to each well, then add 0.2 ng of SHP2 protein sample to the corresponding well plate and incubate at room temperature for 1 hour. The surrogate substrate DiFMUP (Invitrogen, Cat #D6567) was added to the reaction and allowed to react for 1 hour at room temperature. Fluorescence signals were monitored using a microplate reader (Envision, Perki Elmer) using excitation and emission wavelengths of 340 nm and […], respectively.(4) Data analysis:Calculation Formula:Suppression rate %=1-Conversion_sample-Conversion_min/Conversion_max-Conversion_min×100%
Compound `N[C@@H]1c2ccccc2CC12CCN(c1ncc(C#CCOc3cccc(Cl)c3F)nc1CO)CC2` [US20230339882, Example A05] yielded a concentration for half-maximal inhibition (IC50) of 4.9 nM.

As to `COc1ccccc1OCC#Cc1cnc(N2CCC3(CC2)Cc2ccccc2[C@H]3N)c(CO)n1` [US20230339882, Example A10], the IC50 turned out to be 3.7 nM.

With `N#Cc1ccc(OCC#Cc2cnc(N3CCC4(CC3)Cc3ccccc3[C@H]4N)c(CO)n2)cc1` [US20230339882, Example A12], the half-maximal inhibitory concentration (IC50) came to 1 nM.

`N[C@@H]1c2ccccc2CC12CCN(c1ncc(C#CCOc3cccc(OC(F)(F)F)c3)nc1CO)CC2` [US20230339882, Example A15] returned an IC50 of 11 nM.

Take `CC(=O)c1cccc(OCC#Cc2cnc(N3CCC4(CC3)Cc3ccccc3[C@H]4N)c(CO)n2)c1` [US20230339882, Example A16]: the concentration for half-maximal inhibition (IC50) is 2.4 nM. This IC50 is about 4.6-fold lower than that of the compound before.

Compound `N[C@@H]1c2ccccc2CC12CCN(c1ncc(C#CCOc3ccc4ccc(=O)[nH]c4c3)nc1CO)CC2` [US20230339882, Example A24] gave a 50% inhibitory concentration (IC50) of 2.4 nM.

For `N[C@@H]1c2ccccc2CC12CCN(c1ncc(C#CCOc3ccc4c(c3)NC(=O)C4)nc1CO)CC2` [US20230339882, Example A25], the IC50 was 1.7 nM.

`CC(=O)Nc1cccc(OCC#Cc2cnc(N3CCC4(CC3)Cc3ccccc3[C@H]4N)n(C)c2=O)c1` [US20230339882, Example A34] registered an IC50 of 5.3 nM.

With `CNC(=O)c1cccc(OCC#Cc2cnc(N3CCC4(CC3)Cc3ccccc3[C@H]4N)c(CO)n2)c1` [US20230339882, Example A35], the concentration for half-maximal inhibition (IC50) was found to be 2.2 nM.

In the case of `CN(C)C(=O)c1cccc(OCC#Cc2cnc(N3CCC4(CC3)Cc3ccccc3[C@H]4N)c(CO)n2)c1` [US20230339882, Example A36], half-maximal inhibition (IC50) required 7.2 nM.

As to `N[C@@H]1c2ccccc2CC12CCN(c1ncc(C#CCOc3ccc(C(F)(F)F)nc3)nc1CO)CC2` [US20230339882, Example A63], half-maximal inhibition (IC50) required 2.6 nM.

Turning to `N[C@@H]1c2ccccc2CC12CCN(c1ncc(C#CCNc3ccc4c(c3)NC(=O)CC4)nc1CO)CC2` [US20230339882, Example A64], the concentration for half-maximal inhibition (IC50) stood at 2.6 nM.

In the case of `N[C@@H]1c2ccccc2CC12CCN(c1ncc(C#CCOc3ccc4[nH]ncc4c3)nc1CO)CC2` [US20230339882, Example A67], the IC50 was 3.1 nM. The IC50 values of the last two compounds are within 1.5-fold of each other.

`CNC(=O)c1ccc(OCC#Cc2cnc(N3CCC4(CC3)Cc3ccccc3[C@H]4N)c(CO)n2)cc1` [US20230339882, Example A72] returned a 50% inhibitory concentration (IC50) of 2.6 nM.
